How the values were obtained:
Experiment in all cases: cells
[1] = test system: COLO-800; format: functional, cell-based, Homo sapiens; conditions: Homo sapiens, COLO-800;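 further: growth inhibition of COLO-800 cells, read out with a cell viability assay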
Description: SANGER: Inhibition of human COLO-800 cell growth in a cell viability assay.

[2] = test system: D283 Med; format: functional, cell-based, Homo sapiens; conditions: Homo sapiens, D283 Med
Description: SANGER: Inhibition of human D-283MED cell growth in a cell viability assay.

[3] = test system: DK-MG; format: functional, cell-based, Homo sapiens; conditions: Homo sapiens, DK-MG;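 further: growth inhibition of DK-MG cells, read out with a cell viability assay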
Description: SANGER: Inhibition of human DK-MG cell growth in a cell viability assay.

[4] = test system: ES6; format: functional, cell-based, Homo sapiens; conditions: Homo sapiens, ES6;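 further: growth inhibition of human ES6 cells, read out with a cell viability assay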
Description: SANGER: Inhibition of human ES6 cell growth in a cell viability assay.

[5] = test system: EW-11; format: functional, cell-based, Homo sapiens; conditions: Homo sapiens, EW-11;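 further: growth inhibition of human EW-11 cells, measured with a cell viability assay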
Description: SANGER: Inhibition of human EW-11 cell growth in a cell viability assay.

[6] = test system: EW-3; format: functional, cell-based; conditions: Homo sapiens;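 further: cell viability assay read-out, IC50 reflects inhibition of growth of the EW-3 cells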
Description: SANGER: Inhibition of human EW-3 cell growth in a cell viability assay.

[7] = test system: GAK; format: functional, cell-based, Homo sapiens; conditions: Homo sapiens, GAK;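 further: cell growth inhibition read out by a cell viability assay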
Description: SANGER: Inhibition of human GAK cell growth in a cell viability assay.

[8] = test system: HCC1937; format: functional, cell-based, Homo sapiens; conditions: Homo sapiens, HCC1937;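 further: growth inhibition measured with a cell viability read-out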
Description: SANGER: Inhibition of human HCC1937 cell growth in a cell viability assay.

[9] = test system: HCC1954; format: functional, cell-based, Homo sapiens; conditions: Homo sapiens, HCC1954;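 further: growth inhibition of human HCC1954 cells, read out with a cell viability assay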
Description: SANGER: Inhibition of human HCC1954 cell growth in a cell viability assay.

[10] = test system: HCC2218; format: functional, cell-based; conditions: Homo sapiens;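 further: cell viability assay read-out, with IC50 given as the concentration that inhibits growth of the cell line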
Description: SANGER: Inhibition of human HCC2218 cell growth in a cell viability assay.

[11] = test system: Huh-7; format: functional, cell-based, Homo sapiens; conditions: Homo sapiens, Huh-7;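 further: HuH-7 cell growth inhibition, read out with a cell viability assay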
Description: SANGER: Inhibition of human HuH-7 cell growth in a cell viability assay.

[12] = test system: IA-LM; format: functional, cell-based, Homo sapiens; conditions: Homo sapiens, IA-LM;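 further: cell viability assay measuring growth inhibition of human IA-LM cells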
Description: SANGER: Inhibition of human IA-LM cell growth in a cell viability assay.

[13] = test system: IST-SL1; format: functional, cell-based, Homo sapiens; conditions: Homo sapiens, IST-SL1;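 further: growth inhibition of human IST-SL1 cells, read out with a cell viability assay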
Description: SANGER: Inhibition of human IST-SL1 cell growth in a cell viability assay.

[14] = test system: KE-37; format: functional, cell-based; conditions: Homo sapiens;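 further: growth inhibition of KE-37 cells, read out with a cell viability assay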
Description: SANGER: Inhibition of human KE-37 cell growth in a cell viability assay.

[15] = test system: KLE; format: functional, cell-based, Homo sapiens; conditions: Homo sapiens, KLE;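 further: growth inhibition of human KLE cells, read out with a cell viability assay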
Description: SANGER: Inhibition of human KLE cell growth in a cell viability assay.

[16] = test system: KS-1; format: functional, cell-based, Homo sapiens; conditions: Homo sapiens, KS-1;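 further: growth inhibition of KS-1 cells, read out with a cell viability assay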
Description: SANGER: Inhibition of human KS-1 cell growth in a cell viability assay.

[17] = test system: LAN-6; format: functional, cell-based, Homo sapiens; conditions: Homo sapiens, LAN-6;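 further: growth inhibition of LAN-6 cells, determined with a cell viability assay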
Description: SANGER: Inhibition of human LAN-6 cell growth in a cell viability assay.

[18] = test system: LS-123; format: functional, cell-based, Homo sapiens; conditions: Homo sapiens, LS-123
Description: SANGER: Inhibition of human LS-123 cell growth in a cell viability assay.

[19] = test system: MC-IXC; format: functional, cell-based, Homo sapiens; conditions: Homo sapiens, MC-IXC;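 further: growth inhibition of MC-IXC cells, read out with a cell viability assay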
Description: SANGER: Inhibition of human MC-IXC cell growth in a cell viability assay.

[20] = test system: MDA-MB-453; format: functional, cell-based, Homo sapiens; conditions: Homo sapiens, MDA-MB-453
Description: SANGER: Inhibition of human MDA-MB-453 cell growth in a cell viability assay.

[21] = test system: MEG-01; format: functional, cell-based; conditions: Homo sapiens;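 further: growth inhibition of MEG-01 cells, read out by a cell viability assay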
Description: SANGER: Inhibition of human MEG-01 cell growth in a cell viability assay.

[22] = test system: MFH-ino; format: functional, cell-based; conditions: Homo sapiens;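 further: growth inhibition of human MFH-ino cells, read out by a cell viability assay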
Description: SANGER: Inhibition of human MFH-ino cell growth in a cell viability assay.

[23] = test system: MKN-1; format: functional, cell-based, Homo sapiens; conditions: Homo sapiens, MKN-1;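 further: growth inhibition of human MKN1 cells, read out by a cell viability measurement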
Description: SANGER: Inhibition of human MKN1 cell growth in a cell viability assay.

[24] = test system: NCI-H1437; format: functional, cell-based, Homo sapiens; conditions: Homo sapiens, NCI-H1437;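 further: growth inhibition of human NCI-H1437 cells, read out by a cell viability assay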
Description: SANGER: Inhibition of human NCI-H1437 cell growth in a cell viability assay.

[25] = test system: NCI-H1581; format: functional, cell-based, Homo sapiens; conditions: Homo sapiens, NCI-H1581;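 further: cell growth inhibition read out by a viability assay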
Description: SANGER: Inhibition of human NCI-H1581 cell growth in a cell viability assay.

[26] = test system: NCI-H2122; format: functional, cell-based, Homo sapiens; conditions: Homo sapiens, NCI-H2122;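 further: growth inhibition of the cells, read out with a cell viability assay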
Description: SANGER: Inhibition of human NCI-H2122 cell growth in a cell viability assay.

[27] = test system: NCI-H2347; format: functional, cell-based, Homo sapiens; conditions: Homo sapiens, NCI-H2347;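 further: growth inhibition of the cell line, read out with a cell viability assay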
Description: SANGER: Inhibition of human NCI-H2347 cell growth in a cell viability assay.

[28] = test system: NY; format: functional, cell-based, Homo sapiens; conditions: Homo sapiens, NY
Description: SANGER: Inhibition of human NY cell growth in a cell viability assay.

[29] = test system: OVCAR-5; format: functional, cell-based, Homo sapiens; conditions: Homo sapiens, OVCAR-5;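 further: growth inhibition of human OVCAR-5 cells, read out with a cell viability assay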
Description: SANGER: Inhibition of human OVCAR-5 cell growth in a cell viability assay.

[30] = test system: RD; format: functional, cell-based, Homo sapiens; conditions: Homo sapiens, RD
Description: SANGER: Inhibition of human RD cell growth in a cell viability assay.

[31] = test system: RPMI-2650; format: functional, cell-based, Homo sapiens; conditions: Homo sapiens, RPMI-2650
Description: SANGER: Inhibition of human RPMI-2650 cell growth in a cell viability assay.

[32] = test system: SBC-1; format: functional, cell-based; conditions: Homo sapiens;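 further: cell viability assay measuring growth inhibition of the SBC-1 cell line, IC50 being the concentration that halves growth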
Description: SANGER: Inhibition of human SBC-1 cell growth in a cell viability assay.

[33] = test system: SF-268; format: functional, cell-based, Homo sapiens; conditions: Homo sapiens, SF-268;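 further: growth inhibition of SF-268 cells determined with a cell viability assay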
Description: SANGER: Inhibition of human SF268 cell growth in a cell viability assay.

[34] = test system: SK-LMS-1; format: functional, cell-based, Homo sapiens; conditions: Homo sapiens, SK-LMS-1;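 further: growth inhibition of human SK-LMS-1 cells, read out with a cell viability assay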
Description: SANGER: Inhibition of human SK-LMS-1 cell growth in a cell viability assay.

[35] = test system: SK-PN-DW; format: functional, cell-based; conditions: Homo sapiens;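 further: growth inhibition measured with a viability assay on these cells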
Description: SANGER: Inhibition of human SK-PN-DW cell growth in a cell viability assay.

[36] = test system: SN12C; format: functional, cell-based, Homo sapiens; conditions: Homo sapiens, SN12C;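 further: growth inhibition of human SN12C cells, measured by a cell viability assay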
Description: SANGER: Inhibition of human SN12C cell growth in a cell viability assay.

[37] = test system: SNU-449; format: functional, cell-based, Homo sapiens; conditions: Homo sapiens, SNU-449
Description: SANGER: Inhibition of human SNU-449 cell growth in a cell viability assay.

[38] = test system: SW982; format: functional, cell-based; conditions: Homo sapiens;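 further: growth inhibition of SW982 cells, read out with a cell viability assay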
Description: SANGER: Inhibition of human SW982 cell growth in a cell viability assay.

[39] = test system: SAOS-2; format: functional, cell-based, Homo sapiens; conditions: Homo sapiens, SAOS-2;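 further: growth inhibition of human Saos-2 cells determined by a cell viability assay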
Description: SANGER: Inhibition of human Saos-2 cell growth in a cell viability assay.

[40] = test system: 5637; format: functional, cell-based, Homo sapiens; conditions: Homo sapiens
Description: SANGER: Inhibition of human 5637 cell growth in a cell viability assay.

[41] = test system: 639-V; format: functional, cell-based, Homo sapiens; conditions: Homo sapiens, 639-V;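 further: growth inhibition of 639-V cells, read out with a cell viability assay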
Description: SANGER: Inhibition of human 639-V cell growth in a cell viability assay.

[42] = test system: A388; format: functional, cell-based, Homo sapiens; conditions: Homo sapiens, A388;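 further: growth inhibition of human A388 cells, read out with a cell viability assay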
Description: SANGER: Inhibition of human A388 cell growth in a cell viability assay.

[43] = test system: A4-Fuk; format: functional, cell-based; conditions: Homo sapiens;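 further: growth inhibition of A4-Fuk cells, read out by a cell viability assay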
Description: SANGER: Inhibition of human A4-Fuk cell growth in a cell viability assay.

[44] = test system: ALL-PO; format: functional, cell-based; conditions: Homo sapiens;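 further: growth inhibition of ALL-PO cells, read out by a cell viability assay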
Description: SANGER: Inhibition of human ALL-PO cell growth in a cell viability assay.

[45] = test system: AN3-CA; format: functional, cell-based; conditions: Homo sapiens;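 further: growth inhibition of human AN3-CA cells measured by a cell viability assay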
Description: SANGER: Inhibition of human AN3-CA cell growth in a cell viability assay.

[46] = test system: BHT-101; format: functional, cell-based, Homo sapiens; conditions: Homo sapiens, BHT-101
Description: SANGER: Inhibition of human BHT-101 cell growth in a cell viability assay.

[47] = test system: C3A; format: functional, cell-based, Homo sapiens; conditions: Homo sapiens, C3A;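 further: growth inhibition of C3A human cells, quantified with a cell viability readout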
Description: SANGER: Inhibition of human C3A cell growth in a cell viability assay.

[48] = test system: CAL-120; format: functional, cell-based, Homo sapiens; conditions: Homo sapiens, CAL-120;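 further: cell growth inhibition, read out as cell viability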
Description: SANGER: Inhibition of human CAL-120 cell growth in a cell viability assay.

[49] = test system: CAL-51; format: functional, cell-based, Homo sapiens; conditions: Homo sapiens, CAL-51;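 further: human CAL-51 cell line, growth inhibition read out via a cell viability assay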
Description: SANGER: Inhibition of human CAL-51 cell growth in a cell viability assay.

[50] = test system: VA-ES-BJ; format: functional, cell-based, Homo sapiens; conditions: Homo sapiens, VA-ES-BJ;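 further: growth inhibition of the VA-ES-BJ cell line, read out by a cell viability assay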
Description: SANGER: Inhibition of human VA-ES-BJ cell growth in a cell viability assay.

[51] = test system: WM-115; format: functional, cell-based, Homo sapiens; conditions: Homo sapiens, WM-115
Description: SANGER: Inhibition of human WM-115 cell growth in a cell viability assay.

[52] = test system: CAMA-1; format: functional, cell-based, Homo sapiens; conditions: Homo sapiens, CAMA-1;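 further: growth inhibition of CAMA-1 cells, read out with a cell viability assay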
Description: SANGER: Inhibition of human CAMA-1 cell growth in a cell viability assay.

Cn1cncc1[C@@](N)(c1ccc(Cl)cc1)c1ccc2c(c1)c(-c1cccc(Cl)c1)cc(=O)n2C [TIPIFARNIB]
IC50 [1]: > 16000 nM
IC50 [2]: > 16000 nM
IC50 [3]: > 16000 nM
IC50 [4]: 539 nM
IC50 [5]: > 16000 nM
IC50 [6]: > 16000 nM
IC50 [7]: 3800 nM
IC50 [8]: 9020 nM
IC50 [9]: 14300 nM
IC50 [10]: > 16000 nM
IC50 [11]: 6050 nM
IC50 [12]: 47.5 nM
IC50 [13]: > 16000 nM
IC50 [14]: 2320 nM
IC50 [15]: 8910 nM
IC50 [16]: 770 nM
IC50 [17]: 14100 nM
IC50 [18]: 2110 nM
IC50 [19]: 2760 nM
IC50 [20]: > 16000 nM
IC50 [21]: 3610 nM
IC50 [22]: 815 nM
IC50 [23]: 1880 nM
IC50 [24]: 8210 nM
IC50 [25]: > 16000 nM
IC50 [26]: 191 nM
IC50 [27]: > 16000 nM
IC50 [28]: 1930 nM
IC50 [29]: > 16000 nM
IC50 [30]: 12000 nM
IC50 [31]: 8290 nM
IC50 [32]: > 16000 nM
IC50 [33]: 8070 nM
IC50 [34]: 184 nM
IC50 [35]: 15500 nM
IC50 [36]: 13200 nM
IC50 [37]: 623 nM
IC50 [38]: > 16000 nM
IC50 [39]: > 16000 nM
IC50 [40]: 1030 nM
IC50 [41]: 1190 nM
IC50 [42]: 865 nM
IC50 [43]: 20.6 nM
IC50 [44]: 555 nM
IC50 [45]: 1000 nM
IC50 [46]: 3090 nM
IC50 [47]: 4640 nM
IC50 [48]: > 16000 nM
IC50 [49]: 3530 nM
IC50 [50]: 2360 nM
IC50 [51]: > 16000 nM
IC50 [52]: > 16000 nM

CCC1=C[C@@H]2CN(C1)Cc1c([nH]c3ccccc13)[C@@](C(=O)OC)(c1cc3c(cc1OC)N(C)[C@H]1[C@@](O)(C(=O)OC)[C@H](OC(C)=O)[C@]4(CC)C=CCN5CC[C@]31[C@@H]54)C2 [VINORELBINE]
IC50 [1]: 17 nM
IC50 [2]: > 64 nM
IC50 [3]: > 64 nM
IC50 [4]: 42.4 nM
IC50 [5]: 42.7 nM
IC50 [6]: > 64 nM
IC50 [7]: > 64 nM
IC50 [8]: > 64 nM
IC50 [9]: 10.1 nM
IC50 [10]: 57.1 nM
IC50 [11]: 29.6 nM
IC50 [12]: 3.71 nM
IC50 [13]: 39.3 nM
IC50 [14]: 4.42 nM
IC50 [15]: > 64 nM
IC50 [16]: 1.47 nM
IC50 [17]: > 64 nM
IC50 [18]: > 64 nM
IC50 [19]: 1.49 nM
IC50 [20]: > 64 nM
IC50 [21]: 20.8 nM
IC50 [22]: 5.6 nM
IC50 [23]: 11.8 nM
IC50 [24]: 7.11 nM
IC50 [25]: 37.2 nM
IC50 [26]: 2.59 nM
IC50 [27]: 26.1 nM
IC50 [28]: 8.12 nM
IC50 [29]: > 64 nM
IC50 [30]: 5.42 nM
IC50 [31]: 10 nM
IC50 [32]: > 64 nM
IC50 [33]: 16.3 nM
IC50 [34]: 1.46 nM
IC50 [35]: 12.5 nM
IC50 [36]: 33.1 nM
IC50 [37]: > 64 nM
IC50 [38]: 5.3 nM
IC50 [39]: > 64 nM
IC50 [40]: 7.55 nM
IC50 [41]: 6.61 nM
IC50 [42]: 6.07 nM
IC50 [43]: 4.04 nM
IC50 [44]: 3.36 nM
IC50 [45]: 6.27 nM
IC50 [46]: > 64 nM
IC50 [47]: > 64 nM
IC50 [48]: 43.6 nM
IC50 [49]: 8.61 nM
IC50 [50]: 4.23 nM
IC50 [51]: > 64 nM
IC50 [52]: 45.6 nM
